The Kinase Knowledgebase extract (Sharma et al. 2016)

Target: EGFR (UniProt P00533)
Assay: Inhibition of EGFR Kinase Activity

Chain of EGFR (P00533 whole entry, looked up): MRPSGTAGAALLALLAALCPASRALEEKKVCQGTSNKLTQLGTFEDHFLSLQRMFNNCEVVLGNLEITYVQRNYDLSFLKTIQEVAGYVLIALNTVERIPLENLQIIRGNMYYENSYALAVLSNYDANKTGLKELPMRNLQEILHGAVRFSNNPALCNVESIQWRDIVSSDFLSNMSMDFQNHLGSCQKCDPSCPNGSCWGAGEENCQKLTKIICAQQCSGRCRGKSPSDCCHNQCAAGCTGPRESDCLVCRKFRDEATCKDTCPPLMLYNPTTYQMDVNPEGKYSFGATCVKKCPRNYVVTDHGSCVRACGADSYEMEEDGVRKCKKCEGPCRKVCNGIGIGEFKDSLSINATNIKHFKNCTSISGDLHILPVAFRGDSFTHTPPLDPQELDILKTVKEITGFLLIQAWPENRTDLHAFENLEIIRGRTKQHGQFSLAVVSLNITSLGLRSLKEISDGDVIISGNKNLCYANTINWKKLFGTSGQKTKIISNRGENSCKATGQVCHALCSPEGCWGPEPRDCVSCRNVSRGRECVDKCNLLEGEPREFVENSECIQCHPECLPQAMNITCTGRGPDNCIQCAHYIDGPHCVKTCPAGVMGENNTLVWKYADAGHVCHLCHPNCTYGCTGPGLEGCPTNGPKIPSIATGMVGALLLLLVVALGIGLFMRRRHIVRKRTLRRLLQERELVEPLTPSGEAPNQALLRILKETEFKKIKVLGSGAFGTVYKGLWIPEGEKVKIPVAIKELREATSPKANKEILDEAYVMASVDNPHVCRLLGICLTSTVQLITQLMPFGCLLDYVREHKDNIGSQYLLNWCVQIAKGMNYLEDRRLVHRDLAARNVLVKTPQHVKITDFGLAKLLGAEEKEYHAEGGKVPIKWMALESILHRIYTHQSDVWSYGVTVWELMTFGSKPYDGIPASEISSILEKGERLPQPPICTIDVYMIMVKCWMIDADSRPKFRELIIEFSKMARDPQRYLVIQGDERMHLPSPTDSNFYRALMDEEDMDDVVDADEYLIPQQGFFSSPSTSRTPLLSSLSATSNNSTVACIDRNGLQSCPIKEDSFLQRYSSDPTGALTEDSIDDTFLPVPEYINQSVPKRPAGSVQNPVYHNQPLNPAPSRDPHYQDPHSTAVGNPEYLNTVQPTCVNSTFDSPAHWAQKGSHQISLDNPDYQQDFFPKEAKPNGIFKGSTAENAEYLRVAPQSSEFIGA

Structure (SMILES) | IC50 [µM]
CC#CC(=O)Nc1cc(Nc2ncnc(N(C)c3cccc(Cl)c3)n2)ccc1OCCCC1CCN(C)CC1 | < 50
C=CC(=O)Nc1cccc(Nc2ncnc(Nc3ccc(OCC)c(OCC)c3)n2)c1 | < 50
C=CC(=O)Nc1cccc(Nc2ncnc(N(C)n3c(=O)n(C(=O)C(C)(C)C)c4ccccc43)n2)c1 | < 50
C=CC(=O)Nc1cccc(Nc2ncnc(N(C)c3cccc4ccccc34)n2)c1 | < 50
CC#CC(=O)Nc1cccc(Nc2ncnc(Nc3ccc4c(ccn4Cc4ccccc4)c3)n2)c1 | < 50
C=CC(=O)Nc1ccc(Nc2ncnc(N(C)c3ccc(OCc4ccccc4)c(Cl)c3)n2)cc1 | < 50
CC#CC(=O)Nc1cccc(Nc2ncnc(N(C)n3c(=O)[nH]c4ccccc43)n2)c1 | < 50
CC#CC(=O)Nc1cccc(Nc2ncnc(Nc3ccc(OC)c(OC)c3)n2)c1 | < 50
C=CC(=O)Nc1ccc(Nc2ncnc(N(C)c3ccc(OCCO)cc3)n2)cc1 | < 50
C=CC(=O)Nc1cccc(Nc2ncnc(NC3CC3c3ccc(Cl)cc3)n2)c1 (stereo unspecified) | < 50
C=CC(=O)Nc1ccc(Nc2ncnc(N(C)c3cc(OC)c(OC)c(OCCN4CCOCC4)c3)n2)cc1 | < 50
CC#CC(=O)Nc1cccc(Nc2ncnc(Nc3cccc(Cl)c3)n2)c1 | < 50
C=CC(=O)Nc1ccc(Nc2ncnc(Nc3ccc4c(ccn4Cc4ccccc4)c3)n2)cc1 | < 50
C=CC(=O)Nc1cccc(Nc2ncnc(Nc3cccc(S(=O)(=O)c4ccc([N+](=O)[O-])cc4)c3)n2)c1 | < 50
C=CC(=O)Nc1cccc(Nc2ncnc(Nn3c(=O)n(C(=O)C(C)(C)C)c4ccccc43)n2)c1 | < 50
C=CC(=O)Nc1cccc(Nc2ncnc(N3CCCc4ccc(Cl)cc43)n2)c1 | < 50
C=CCN(c1ncnc(Nc2ccc(NC(=O)C=C)cc2)n1)N1CNc2ccccc21 | < 50
C=CC(=O)Nc1cccc(Nc2ncnc(Nc3ccc(OCCC)c(OCCC)c3)n2)c1 | < 50
C=CC(=O)Nc1cccc(Nc2ncnc(N(CC)n3c(=O)n(C(=O)C(C)(C)C)c4ccccc43)n2)c1 | < 50
C=CC(=O)Nc1cccc(Nc2ncnc(Nc3ccc4c(cnn4Cc4cccc(F)c4)c3)n2)c1 | < 50
C=CC(=O)Nc1ccc(Nc2ncnc(N(C)c3cccc(C(N)=O)c3)n2)cc1 | < 50

Structure (SMILES) | IC50 [µM]
CC#CC(=O)Nc1cc(Nc2ncnc(Nc3cccc(Cl)c3)n2)ccc1OCCCN1CCOCC1 | < 50
C=CCN(c1ncnc(Nc2cccc(NC(=O)C#CC)c2)n1)n1c(=O)n(C(=O)C(C)(C)C)c2ccccc21 | < 50
C=CC(=O)Nc1ccc(Nc2ncnc(N(CC)c3ccc(OC)c(OC)c3)n2)cc1 | < 50
C=CC(=O)Nc1ccc(Nc2ncnc(N(CC)c3cccc(CC(=O)OC)c3)n2)cc1 | < 50
CC#CC(=O)Nc1cccc(Nc2ncnc(N(C)c3cccc(C)c3)n2)c1 | < 50
C=CC(=O)Nc1cccc(Nc2ncnc(Nc3ccc(OCCOC)c(OC)c3)n2)c1 | < 50
C=CC(=O)Nc1ccc(Nc2ncnc(N(CC)c3ccc(F)c(Cl)c3)n2)cc1 | < 50
CC#CC(=O)Nc1cccc(Nc2ncnc(N(C)c3cc(Cl)ccc3C)n2)c1 | < 50
C=CC(=O)N(OCCCN1CCOCC1)c1cccc(Nc2ncnc(NN3CCCc4ccc(Cl)cc43)n2)c1 | < 50
C=CC(=O)Nc1cccc(Nc2ncnc(N(CC)c3ccc(OCCOC)c(OC)c3)n2)c1 | < 50
CC#CC(=O)Nc1cccc(Nc2ncnc(N(C)c3ccc(C(=O)OC)cc3)n2)c1 | < 50
C=CC(=O)Nc1cccc(Nc2ncnc(N(C)c3ccc(C(=O)OC)cc3)n2)c1 | < 50
C=CC(=O)N(CCCN1CCOCC1)c1cccc(Nc2ncnc(Nc3cc(Cl)ccc3C)n2)c1 | < 50
C=CC(=O)Nc1ccc(Nc2ncnc(N(C)c3ccc(OCc4ccccc4)cc3)n2)cc1 | < 50
C=CC(=O)Nc1ccc(Nc2ncnc(NN3CCCc4ccc(C(F)(F)F)cc43)n2)cc1 | < 50
C=CC(=O)Nc1ccc(Nc2ncnc(Nc3ccc(OCc4ccccc4)c(Cl)c3)n2)cc1 | < 50
C#CCC(=O)Nc1cccc(Nc2ncnc(NN3CCCc4ccc(C(F)(F)F)cc43)n2)c1 | < 50
C=CC(=O)Nc1cc(Nc2ncnc(N(C)c3ccc4c(cnn4Cc4ccccc4)c3)n2)ccc1OCCCN1CCOCC1 | < 50
C#Cc1cccc(Nc2ncnc(Nc3cccc(NC(=O)C=C)c3)n2)c1 | < 50
CC#CC(=O)Nc1cccc(Nc2ncnc(N(C)c3cc(OC)c(OC)c(OCCN4CCOCC4)c3)n2)c1 | < 50
CC#CC(=O)Nc1cccc(Nc2ncnc(N(C)C3CC3c3ccc(Cl)cc3)n2)c1 (stereo unspecified) | < 50

Structure (SMILES) | IC50 [µM]
C=CC(=O)Nc1ccc(Nc2ncnc(Nc3cc(Cl)ccc3C)n2)cc1 | < 50
C=CC(=O)N(CCCN1CCOCC1)c1cccc(Nc2ncnc(N(C)c3ccc4c(cnn4Cc4ccccc4)c3)n2)c1 | < 50
C=CC(=O)Nc1cccc(Nc2ncnc(Nc3cccc(Cl)c3)n2)c1 | < 50
C=CC(=O)Nc1ccc(Nc2ncnc(N(CC)n3c(=O)[nH]c4ccccc43)n2)cc1 | < 50
CC#CC(=O)Nc1cccc(Nc2ncnc(Nc3ccc4c(cnn4Cc4ccccc4)c3)n2)c1 | < 50
CC#CC(=O)Nc1cccc(Nc2ncnc(N(C)c3cccc(Cl)c3)n2)c1 | < 50
C=C/C=C/C(=O)Nc1cccc(Nc2ncnc(Nc3ccc4c(ccn4Cc4ccccc4)c3)n2)c1 | < 50
C=CCN(c1ccc(OCCO)cc1)c1ncnc(Nc2cccc(NC(=O)C#CC)c2)n1 | < 50
C=CC(=O)Nc1ccc(Nc2ncnc(Nc3cccc(C(N)=O)c3)n2)cc1 | < 50
CC#CC(=O)Nc1cccc(Nc2ncnc(Nc3cc(Cl)cc4ccccc34)n2)c1 | < 50
CC#CC(=O)Nc1cccc(Nc2ncnc(N(CC)n3c(=O)[nH]c4ccccc43)n2)c1 | < 50
C=CC(=O)Nc1cccc(Nc2ncnc(N(CC)c3ccc(OCc4ccccc4)cc3)n2)c1 | < 50
C=CC(=O)Nc1ccc(Nc2ncnc(N(C)n3c(=O)n(C(=O)C(C)(C)C)c4ccccc43)n2)cc1 | < 50
C=CC(=O)Nc1ccc(Nc2ncnc(Nc3ccc(C(=O)OC)cc3)n2)cc1 | < 50
C=CC(=O)Nc1cccc(Nc2ncnc(Nc3ccc4c(ccn4Cc4ccccc4)c3)n2)c1 | < 50
C=CCN(c1ncnc(Nc2ccc(NC(=O)C=C)cc2)n1)c1cc(Cl)cc2ccccc12 | < 50
C=CCN(c1cccc(C(N)=O)c1)c1ncnc(Nc2cccc(NC(=O)C#CC)c2)n1 | < 50
C=CCN(c1ccc(OCC)c(OCC)c1)c1ncnc(Nc2cccc(NC(=O)C#CC)c2)n1 | < 50
CC#CC(=O)Nc1cccc(Nc2ncnc(N(C)c3ccc(OCC)c(OCC)c3)n2)c1 | < 50

Now from value to compound:

IC50 [µM] | Structure (SMILES)
< 50 | C=CC(=O)Nc1cccc(Nc2ncnc(Nc3cc(Cl)ccc3C)n2)c1
< 50 | C=CCN(c1ncnc(Nc2cccc(NC(=O)C#CC)c2)n1)n1c(=O)[nH]c2ccccc21
< 50 | C=CCN(c1ccc(OCCC)c(OCCC)c1)c1ncnc(Nc2cccc(NC(=O)C=C)c2)n1
< 50 | C=CC(=O)Nc1cccc(Nc2ncnc(N(C)c3ccc(OCCC)c(OCCC)c3)n2)c1
< 50 | C=CCN(c1ccc(OCCO)cc1)c1ncnc(Nc2cccc(NC(=O)C=C)c2)n1
< 50 | C=CC(=O)Nc1ccc(Nc2ncnc(N(CC)c3ccc4c(cnn4Cc4ccccc4)c3)n2)cc1
< 50 | C=CC(=O)Nc1cccc(Nc2ncnc(N(C)c3ccc(OCCOC)c(OC)c3)n2)c1
< 50 | C=CC(=O)Nc1cccc(Nc2ncnc(N(C)c3cccc(S(=O)(=O)c4ccc([N+](=O)[O-])cc4)c3)n2)c1
< 50 | C=CC(=O)Nc1ccc(Nc2ncnc(N(CC)c3ccc(OCCC)c(OCCC)c3)n2)cc1
< 50 | C=CC(=O)Nc1cccc(Nc2ncnc(N(CC)c3ccc(F)c(Cl)c3)n2)c1
< 50 | C=CC(=O)Nc1ccc(Nc2ncnc(N(C)c3ccc(OCCC)c(OCCC)c3)n2)cc1
< 50 | C=CCN(c1ncnc(Nc2cccc(NC(=O)C=C)c2)n1)C1CC1c1ccc(Cl)cc1 (stereo unspecified)
< 50 | CC#CC(=O)Nc1cccc(Nc2ncnc(N(CC)c3cccc(Cl)c3)n2)c1
< 50 | CC#CC(=O)Nc1cccc(Nc2ncnc(Nc3cccc(CC(=O)OC)c3)n2)c1
< 50 | C=CCN(c1ccc2c(cnn2Cc2ccccc2)c1)c1ncnc(Nc2cccc(NC(=O)C=C)c2)n1
< 50 | C=CCN(c1ncnc(Nc2cccc(NC(=O)C=C)c2)n1)C1CC1c1ccccc1 (stereo unspecified)
< 50 | CC#CC(=O)Nc1cccc(Nc2ncnc(Nc3ccc(OCCO)cc3)n2)c1
< 50 | C=CC(=O)Nc1cccc(Nc2ncnc(N(C)c3ccc(OCc4ccccc4)cc3)n2)c1

IC50 [µM] | Structure (SMILES)
< 50 | C=CC(=O)Nc1cccc(Nc2ncnc(Nc3ccc(OCc4ccc(Cl)c(Cl)c4)c(C(F)(F)F)c3)n2)c1
< 50 | C=CCN(c1ccc(OC)c(OC)c1)c1ncnc(Nc2cccc(NC(=O)C=C)c2)n1
< 50 | C=CCN(c1cc(OC)c(OC)c(OCCN2CCOCC2)c1)c1ncnc(Nc2ccc(NC(=O)C=C)cc2)n1
< 50 | CCN(c1ccc2NN(=Cc2c1)Cc3ccccn3)c4ncnc(Nc5cccc(NC(=O)C=C)c5)n4
< 50 | C=CC(=O)N(CCCN1CCOCC1)c2cccc(Nc3ncnc(Nc4ccc5NN(=Cc5c4)Cc6ccccn6)n3)c2
< 50 | C=CC(=O)Nc1cccc(Nc2ncnc(N(CC)c3cc(OC)c(OC)c(OCCN4CCOCC4)c3)n2)c1
< 50 | C=CC(=O)Nc1ccc(Nc2ncnc(NC3CC3c3ccc(Cl)cc3)n2)cc1 (stereo unspecified)
< 50 | C=CC(=O)Nc1cccc(Nc2ncnc(Nc3cc(Cl)cc4ccccc34)n2)c1
< 50 | CC#CC(=O)Nc1cccc(Nc2ncnc(Nc3ccc(C(=O)OC)cc3)n2)c1
< 50 | C=CC(=O)Nc1cccc(Nc2ncnc(Nc3cc(OC)c(OC)c(OC)c3)n2)c1
< 50 | C=CC(=O)Nc1ccc(Nc2ncnc(N(C)c3ccc(F)c(Cl)c3)n2)cc1
< 50 | CC#CC(=O)Nc1cccc(Nc2ncnc(N(CC)c3cc(Cl)ccc3C)n2)c1
< 50 | C=CCN(c1ncnc(Nc2ccc(NC(=O)C=C)cc2)n1)n1c(=O)[nH]c2ccccc21
< 50 | C=CCN(c1cccc(CC(=O)OC)c1)c1ncnc(Nc2cccc(NC(=O)C#CC)c2)n1
< 50 | CC#CC(=O)Nc1cccc(Nc2ncnc(N(CC)c3cccc(CC(=O)OC)c3)n2)c1
< 50 | C=CC(=O)Nc1cc(Nc2ncnc(Nc3ccc(OCc4ccccc4)c(Cl)c3)n2)ccc1OCCCC1CCN(C)CC1
< 50 | CC#CC(=O)Nc1cccc(Nc2ncnc(n2)N(C)c3ccc4NN(=Cc4c3)Cc5ccccn5)c1
